Patent US10723741B1, “DNA polymerase IIIC inhibitors and use thereof” (Acurx Pharmaceuticals, LLC, priority 2018, dated 2020)
Values after ≈ are worked out from the molar mass of the structure shown. Counter-ions that a name gives are not always drawn. Like-named read-outs stand apart in the source and are kept apart here.

How the values were obtained:
Format in all cases: cell-based
[1] = system: Staphylococcus aureus ATCC 29213 (MSSA); assay: Broth microdilution MIC, S. aureus ATCC 29213 (MSSA); conditions: read-out: MIC S. aureus ATCC 29213 (MSSA)
In short: (§1)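 Broth microdilution in strain-specific test medium with ~5.0×10^5 cfu/ml inoculum, 1% DMSO and two-fold compound dilutions from 64 to 0.0625 μg/ml. Plates were held 20 hours at 37° C in ambient air. S. pneumoniae colonies were grown beforehand on blood agar in 5% CO2.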

[2] = system: Streptococcus pneumoniae ATCC 49619; assay: Broth microdilution MIC, S. pneumoniae ATCC 49619; conditions: read-out: MIC S. pneumoniae ATCC 49619
In short: as §1

[3] = system: Bacillus subtilis ATCC 6633; assay: Broth microdilution MIC, B. subtilis ATCC 6633; conditions: read-out: MIC B. subtilis ATCC 6633
In short: as §1

[4] = system: Enterococcus faecium ATCC 700221 (VRE); assay: Broth microdilution MIC, E. faecium ATCC 700221 (VRE); design: MIC E. faecium ATCC 700221 (VRE): unit: ug/mL; conditions: broth microdilution, 37° C., 20 hours; for MIC: Enterococcus faecium, read-out: MIC E. faecium ATCC 700221 (VRE)
In short: as §1

[5] = system: Enterococcus faecalis ATCC 29212; assay: Broth microdilution MIC, E. faecalis ATCC 29212; conditions: read-out: MIC E. faecalis ATCC 29212
In short: as §1

[6] = system: Staphylococcus aureus NRS384 (MRSA); assay: Broth microdilution MIC, S. aureus NRS384 (MRSA); design: MIC NRS 384 (MRSA): unit not given here; conditions: broth microdilution, 37° C., 20 hours; for MIC: Staphylococcus aureus, read-out: MIC NRS 384 (MRSA)
In short: as §1

[7] = system: Escherichia coli ATCC 25922; assay: Broth microdilution MIC, E. coli ATCC 25922 (MHIIB w & w/o 4 mM EDTA); conditions: for MIC: Escherichia coli, read-out: MIC E. coli ATCC 25922; for MIC E. coli ATCC 25922 + 4 mM EDTA: with 4 mM EDTA
In short: as §1

[8] = broth microdilution, 37° C., 20 hours
[9] = ATCC49619, broth microdilution, 37° C., 20 hours
[10] = ATCC6633, broth microdilution, 37° C., 20 hours
[11] = ATCC29212, broth microdilution, 37° C., 20 hours
[12] = ATCC25922, without EDTA, broth microdilution, 37° C., 20 hours

SMILES	MIC [1, 8]	MIC [2, 9]	MIC [3, 10]	MIC [4]	MIC [5, 11]	MIC [6]	MIC [7, 12]	MIC E. coli ATCC 25922 + 4 mM EDTA [7, 8]	MIC E. faecium ATCC 700221 (VRE) [4]	MIC NRS 384 (MRSA) [6]	MIC ([1]; 20 h)	MIC ([2]; ATCC49619, 20 h)	MIC ([3]; ATCC6633, 20 h)	MIC ([5]; ATCC29212, 20 h)	MIC ([7]; ATCC25922, 20 h)
COCCN1CC(Cn2ncc3nc(NCc4ccc(Cl)c(Cl)c4)[nH]c(=O)c32)CC1=O (stereo not shown) [Compound 176, 5-((3,4-dichlorobenzyl)amino)-1-((1-(2-methoxyethyl)-5-oxopyrrolidin-3-yl)methyl)-1H-pyrazolo[4,3-d]pyrimidin-7(6H)-one]	16 µg/mL (≈ 34.4 µM)	4 µg/mL (≈ 8.6 µM)	4 µg/mL (≈ 8.6 µM)	4 µg/mL (≈ 8.6 µM)	8 µg/mL (≈ 17.2 µM)	16 µg/mL (≈ 34.4 µM)	> 64 µg/mL	>64 µg/mL	–	–	–	–	–	–	–
O=C1CC(Cn2ncc3nc(NCc4ccc(Cl)c(Cl)c4)[nH]c(=O)c32)CN1CCO (stereo not shown) [Compound 177, 5-((3,4-dichlorobenzyl)amino)-1-((1-(2-hydroxyethyl)-5-oxopyrrolidin-3-yl)methyl)-1H-pyrazolo[4,3-d]pyrimidin-7(6H)-one]	64 µg/mL (≈ 142 µM)	4 µg/mL (≈ 8.86 µM)	16 µg/mL (≈ 35.5 µM)	16 µg/mL (≈ 35.5 µM)	32 µg/mL (≈ 70.9 µM)	64 µg/mL (≈ 142 µM)	> 64 µg/mL	>64 µg/mL	–	–	–	–	–	–	–
O=c1[nH]c(NCc2ccc(Cl)c(Cl)c2)nc2cnn(CCCOC3CC(O)C3)c12 (stereo not shown) [Compound 179, 5-((3,4-dichlorobenzyl)amino)-1-(3-(3-hydroxycyclobutoxy)propyl)-1H-pyrazolo[4,3-d]pyrimidin-7(6H)-one]	8 µg/mL (≈ 18.3 µM)	4 µg/mL (≈ 9.13 µM)	1 µg/mL (≈ 2.28 µM)	2 µg/mL (≈ 4.56 µM)	4 µg/mL (≈ 9.13 µM)	4 µg/mL (≈ 9.13 µM)	> 64 µg/mL	>64 µg/mL	–	–	–	–	–	–	–
Cl.Cl.O=c1[nH]c(NCc2ccc(Cl)c(Cl)c2)nc2cnn(C3CCN(c4ccncc4)C3)c12 (stereo not shown) [Compound 180, 5-((3,4-Dichlorobenzyl)amino)-1-(1-(pyridin-4-yl)pyrrolidin-3-yl)-1H-pyrazolo[4,3-d]pyrimidin-7(6H)-one dihydrochloride]	8 µg/mL	4 µg/mL	2 µg/mL	–	8 µg/mL	–	64 µg/mL	16 µg/mL	4/4	4/4	–	–	–	–	–
O=c1[nH]c(NCc2ccc(Cl)c(Cl)c2)nc2cnn(CC3CCCN3c3ccccn3)c12 (stereo not shown) [Compound 182, 5-((3,4-dichlorobenzyl)amino)-1-((1-(pyridin-2-yl)pyrrolidin-2-yl)methyl)-1H-pyrazolo[4,3-d]pyrimidin-7(6H)-one dihydrochloride]	–	–	–	–	–	–	–	>64 µg/mL	4/2	4/8	4 µg/mL	8 µg/mL	2 µg/mL	8 µg/mL	> 64 µg/mL
COCC(CN(C)C)OCCn1ncc2nc(NCc3ccc(Cl)c(Cl)c3)[nH]c(=O)c21.Cl (stereo not shown) [Compound 183, 5-((3,4-dichlorobenzyl)amino)-1-(2-((1-(dimethylamino)-3-methoxypropan-2-yl)oxy)ethyl)-1H-pyrazolo[4,3-d]pyrimidin-7(6H)-one hydrochloride]	64 µg/mL	8 µg/mL	8 µg/mL	32 µg/mL	32 µg/mL	64 µg/mL	> 64 µg/mL	>64 µg/mL	–	–	–	–	–	–	–
CNCC(COC)OCCn1ncc2nc(NCc3ccc(Cl)c(Cl)c3)[nH]c(=O)c21.Cl (stereo not shown) [Compound 184, 5-((3,4-dichlorobenzyl)amino)-1-(2-((1-methoxy-3-(methylamino)propan-2-yl)oxy)ethyl)-1H-pyrazolo[4,3-d]pyrimidin-7(6H)-one]	64 µg/mL	8 µg/mL	8 µg/mL	64 µg/mL	64 µg/mL	64 µg/mL	> 64 µg/mL	64 µg/mL	–	–	–	–	–	–	–
COC(=O)COCCOCCn1ncc2nc(NCc3ccc(Cl)c(Cl)c3)[nH]c(=O)c21 [Compound 186, methyl 2-(2-(2-(5-((3,4-dichlorobenzyl)amino)-7-oxo-6,7-dihydro-1H-pyrazolo[4,3-d]pyrimidin-1-yl)ethoxy)ethoxy)acetate]	16 µg/mL (≈ 34 µM)	> 64 µg/mL	4 µg/mL (≈ 8.5 µM)	4 µg/mL (≈ 8.5 µM)	16 µg/mL (≈ 34 µM)	8 µg/mL (≈ 17 µM)	> 64 µg/mL	>64 µg/mL	–	–	–	–	–	–	–
O=c1[nH]c(NCc2ccc(Cl)c(Cl)c2)nc2cnn(CCOC3CCS(=O)(=O)CC3)c12 [Compound 188, 5-((3,4-dichlorobenzyl)amino)-1-(2-((1,1-dioxidotetrahydro-2H-thiopyran-4-yl)oxy)ethyl)-1H-pyrazolo[4,3-d]pyrimidin-7(6H)-one]	16 µg/mL (≈ 32.9 µM)	8 µg/mL (≈ 16.4 µM)	4 µg/mL (≈ 8.22 µM)	4 µg/mL (≈ 8.22 µM)	8 µg/mL (≈ 16.4 µM)	16 µg/mL (≈ 32.9 µM)	> 64 µg/mL	>64 µg/mL	–	–	–	–	–	–	–

The next lines start with results.

MIC [1, 8]	MIC [2, 9]	MIC [3, 10]	MIC [4]	MIC [5, 11]	MIC [6]	MIC [7, 12]	MIC E. coli ATCC 25922 + 4 mM EDTA [7, 8]	MIC E. faecium ATCC 700221 (VRE) [4]	MIC NRS 384 (MRSA) [6]	SMILES	MIC ([1]; 20 h)	MIC ([2]; ATCC49619, 20 h)	MIC ([3]; ATCC6633, 20 h)	MIC ([5]; ATCC29212, 20 h)	MIC ([7]; ATCC25922, 20 h)
4 µg/mL (≈ 9.75 µM)	4 µg/mL (≈ 9.75 µM)	2 µg/mL (≈ 4.87 µM)	–	8 µg/mL (≈ 19.5 µM)	–	> 64 µg/mL	>64 µg/mL	4/4	4/4	O=c1[nH]c(NCc2ccc(Cl)c(Cl)c2)nc2cnn(CCOC3COC3)c12 [Compound 178, 5-((3,4-Dichlorobenzyl)amino)-1-(2-(oxetan-3-yloxy)ethyl)-1H-pyrazolo[4,3-d]pyrimidin-7(6H)-one]	–	–	–	–	–
4 µg/mL	4 µg/mL	1 µg/mL	–	8 µg/mL	–	> 64 µg/mL	>64. ug/ml	4/1	4/2	Cl.O=c1[nH]c(NCc2ccc(Cl)c(Cl)c2)nc2cnn(CCOCc3cccnc3)c12 [Compound 181, 5-((3,4-Dichlorobenzyl)amino)-1-(2-(pyridin-3-ylmethoxy)ethyl)-1H-pyrazolo[4,3-d]pyrimidin-7(6H)-one hydrochloride]	–	–	–	–	–
16 µg/mL	8 µg/mL	4 µg/mL	16 µg/mL	16 µg/mL	16 µg/mL	> 64 µg/mL	>64. ug/ml	–	–	COCC(OCCn1ncc2nc(NCc3ccc(Cl)c(Cl)c3)[nH]c(=O)c21)c1cccnc1.Cl (stereo not shown) [Compound 185, 5-((3,4-Dichlorobenzyl)amino)-1-(2-(2-methoxy-1-(pyridin-3-yl)ethoxy)ethyl)-1H-pyrazolo[4,3-d]pyrimidin-7(6H)-one hydrochloride]	–	–	–	–	–
> 64 µg/mL	> 64 µg/mL	64 µg/mL (≈ 140 µM)	64 µg/mL (≈ 140 µM)	64 µg/mL (≈ 140 µM)	> 64 µg/mL	> 64 µg/mL	>64 µg/mL	–	–	O=C(O)COCCOCCn1ncc2nc(NCc3ccc(Cl)c(Cl)c3)[nH]c(=O)c21 [Compound 187, 2-(2-(2-(5-((3,4-dichlorobenzyl)amino)-7-oxo-6,7-dihydro-1H-pyrazolo[4,3-d]pyrimidin-1-yl)ethoxy)ethoxy)acetic acid]	–	–	–	–	–
16 µg/mL (≈ 37 µM)	64 µg/mL (≈ 148 µM)	16 µg/mL (≈ 37 µM)	8 µg/mL (≈ 18.5 µM)	16 µg/mL (≈ 37 µM)	16 µg/mL (≈ 37 µM)	> 64 µg/mL	64 µg/mL	–	–	O=c1[nH]c(NCc2ccc(Cl)c(Cl)c2)nc2cnn(Cc3ccc(O)c(O)c3)c12 [Compound 189, 5-((3,4-dichlorobenzyl)amino)-1-(3,4-dihydroxybenzyl)-1H-pyrazolo[4,3-d]pyrimidin-7(6H)-one]	–	–	–	–	–
> 64 µg/mL	> 64 µg/mL	> 64 µg/mL	> 64 µg/mL	> 64 µg/mL	> 64 µg/mL	> 64 µg/mL	>64 µg/mL	–	–	COc1ccc(Cn2ncc3nc(NCc4ccc(Cl)c(Cl)c4)[nH]c(=O)c32)cc1OC [Compound 190, 5-((3,4-Dichlorobenzyl)amino)-1-(3,4-dimethoxybenzyl)-1H-pyrazolo[4,3-d]pyrimidin-7(6H)-one]	–	–	–	–	–
4 µg/mL (≈ 9.73 µM)	4 µg/mL (≈ 9.73 µM)	2 µg/mL (≈ 4.86 µM)	2 µg/mL (≈ 4.86 µM)	8 µg/mL (≈ 19.5 µM)	8 µg/mL (≈ 19.5 µM)	> 64 µg/mL	>64 µg/mL	–	–	O=c1[nH]c(NCc2ccc(Cl)c(Cl)c2)nc2cnn(CCOC/C=N/O)c12 [Compound 191, (E)-2-(2-(5-((3,4-dichlorobenzyl)amino)-7-oxo-6,7-dihydro-1H-pyrazolo[4,3-d]pyrimidin-1-yl)ethoxy)acetaldehyde oxime]	–	–	–	–	–
2 µg/mL (≈ 5.07 µM)	4 µg/mL (≈ 10.1 µM)	1 µg/mL (≈ 2.54 µM)	2 µg/mL (≈ 5.07 µM)	4 µg/mL (≈ 10.1 µM)	2 µg/mL (≈ 5.07 µM)	> 64 µg/mL	>64 µg/mL	–	–	COC/C=C/Cn1ncc2nc(NCc3ccc(Cl)c(Cl)c3)[nH]c(=O)c21 [Compound 192, (E)-5-((3,4-dichlorobenzyl)amino)-1-(4-methoxybut-2-en-1-yl)-1H-pyrazolo[4,3-d]pyrimidin-7(6H)-one]	–	–	–	–	–
